Assay results reported in publication PMC9863607, “Combined Use of Antimicrobial Peptides with Antiseptics against Multidrug-Resistant Bacteria: Pros and Cons” (Pharmaceutics, 2023).
In brackets after ≈: the same amount, converted by molar mass. Where two headings read alike, the source gives them in different places. Peptide text beside a SMILES is read from it.

How the values were obtained:
Assay type in all cases: cell-based, Escherichia coli
E. coli ML-35p [1] = assay: Fluorometric resazurin assay of bacterial metabolic activity; details: ¼ MIC AMP + ¼ MIC poviargolum; became comparable to ½ MIC of the peptide
Description: The decline in metabolic activity of bacterial cells faced against test substances or their combinations was tracked using resazurin dye, also known as alamarBlue. […] Thus, resazurin-to-resorufin conversion was primarily associated with energy metabolism impairment.
The experimental procedure was basically the same as for permeability testing except for the substitution of the markers by 120 μM resazurin and the addition of 0.1% MHB to provide bacteria with a metabolic substrate. An additional control without both antimicrobials and bacterial cells was included to imitate the zero metabolic activity level. Though resazurin-to-resorufin transformation can be observed via either spectrometry or fluorimetry, the latter was preferred as a more sensitive method. Experiments were conducted in 96-well white opaque plates. Temperature and shaking parameters were left unchanged. Fluorescence intensity was measured at 590 nm with excitation at 560 nm. Data were collected every 3 min for 4–6 h using a Gemini EM plate spectrofluorimeter (Molecular Devices, San Jose, CA, USA).

E. coli ML-35p [2] = assay: Bacterial membrane permeability assay (nitrocefin / ONPG)
Description: Monitoring the ability of the test substances or their combinations to affect bacterial membranes and enhance their permeability over time was organized using a method first proposed by Prof. Lehrer’s scientific group. The idea is based on utilizing special markers that cannot spontaneously penetrate bacterial membranes until those are damaged but would be readily processed by the bacteria’s own enzymes into products of different color once they enter. Then, the product can be spectrophotometrically detected, and the dynamics of its accumulation can be associated with the scale and swiftness of the inflicted membrane impairment. The specific bacterial strain E. coli ML-35p was designed for the procedure. It is a descendant of E. coli ML-35, first identified during lac operon studies, deficient in lactopermease but constitutively expressing cytoplasmic β-galactosidase, that was modified with a plasmid vector to additionally provide it with a periplasmic β-lactamase. These modifications create the basis for the mentioned membrane damage detection approach, as there are two specifically placed enzymes, but their lactose/galactose-based substrates cannot enter bacterial cells on their own in the absence of lactopermeases.
Nitrocefin (Calbiochem-Novabiochem, San Diego, CA, USA), which can be converted by β-lactamase into a pink-colored product detectable at 486 nm once it reaches the periplasmic space, was used as a marker of the outer membrane permeability, and ONPG (o-nitrophenyl-β-D-galactoside, Sigma, St. Louis, MO, USA), producing yellow-colored o-nitrophenyl detectable at 420 nm once hydrolyzed by β-galactosidase in the bacterial cytoplasm, was likewise used as an indicator of inner membrane damage.
An overnight culture of E. coli ML-35p grown at 37 °C in 3% Trypticase soy broth (TSB) was washed of the medium twice with 10 mM Na-P buffer (pH 7.4) via a 10 min long centrifugation at 600 g and 4 °C and diluted down in the same buffer to 1 × 10^8 CFU/mL stock concentration based on the optical density (OD) of the suspension at 620 nm (the formula being concentration [CFU/mL] = OD620 × 2.5 × 10^8). The stock was preferably used immediately or kept at 4ᵒC for no more than 1 h. Experiments were carried out in 96-well clear flat-bottom plates. The 100 µL samples containing antimicrobials or their combinations in desired concentrations, 10 mM Na-P buffer (pH 7.4), 100 mM NaCl, 20 μM of nitrocefin or 2.5 mM of ONPG, and bacteria in a final concentration of 2.5 × 10^7 CFU/mL were made in duplicates. Controls included no antimicrobial substances. Bacterial suspension was the last component and was added just before the start of the measurement. OD values at the wavelengths of 420 and 486 nm were collected once per minute for 1–2 h using SpectraMax 250 Microplate Spectrophotometer (Molecular Devices, San Jose, CA, USA); samples were maintained at 37 °C with 5 s of shaking before each read.

E. coli ML-35p [3] = assay: Broth microdilution assay (MIC, planktonic bacteria); details: antiseptics and surfactants, MHB, overnight 37 °C, median of 3–4 independent experiments, prontosan as polyhexanide
Description: In this regard the test plates were preincubated for 1 h at 37 °C with 0.1% bovine serum albumin (BSA) in distilled water before use. Bacteria were grown overnight at 37 °C with shaking in 2.1% Müller–Hinton broth (MHB), and then a small aliquot was transferred into the fresh portion of the same medium for another 2–3 h on the day of the experiment to provide us with the log phase bacterial suspension. Concentration of bacterial cells in suspension was evaluated based on absorbance at 620 nm and diluted down to 1 × 10^6 CFU/mL with MHB. Equal volumes of the prepared bacterial suspension in MHB and two-fold serial dilutions of the antimicrobials in 10 mM sodium phosphate (Na-P) buffer (pH 7.4) with 0.1% BSA were mixed and incubated overnight at 37 °C. The lowest concentration where no bacterial growth was observed the next day under visual examination was considered the minimal inhibitory concentration. The test was repeated at least three times, and the final MIC value was established as a median result. Each experiment was conducted in triplicates. Terasaki microplates (10 µL end volume, V-shaped bottom; Sarstedt, Nümbrecht, Germany) were used.

[4] = intact bacteria and bacteria lysed by 4×MIC of PG-1

CC[C@H](C)[C@H](NC(=O)[C@H](CCCNC(=N)N)NC(=O)[C@@H](NC(=O)[C@@H]1CCCN1C(=O)[C@@H]1CCCN1C(=O)[C@H](CCCNC(=N)N)NC(=O)[C@H](CCCNC(=N)N)NC(=O)[C@H](Cc1ccccc1)NC(=O)[C@@H]1CCCN1C(=O)[C@H](CC(C)C)NC(=O)[C@H](CCCNC(=N)N)NC(=O)[C@H](Cc1ccccc1)NC(=O)[C@@H](N)CCCNC(=N)N)[C@@H](C)CC)C(=O)N[C@@H](Cc1c[nH]cn1)C(=O)N1CCC[C@H]1C(=O)N1CCC[C@H]1C(=O)N1CCC[C@H]1C(=O)N[C@@H](Cc1ccccc1)C(=O)N[C@@H](Cc1ccc(O)cc1)C(=O)N1CCC[C@H]1C(=O)N1CCC[C@H]1C(=O)N[C@@H](Cc1ccccc1)C(=O)N[C@@H](CCCNC(=N)N)C(=O)N[C@@H](CCCNC(=N)N)C(=O)N[C@@H](Cc1ccccc1)C(=O)N[C@@H](CC(C)C)C(=O)O [ChBac3.4] (H-RFRLPFRRPPIRIHPPPFYPPFRRFL-OH; N-terminus assumed)
Effect of poviargolum on development of the AMP's suppression of bacterial metabolic activity (E. coli ML-35p [1]): significantly accelerated

[O-][n+]1c(CO)c(CO)[n+]([O-])c2ccccc21 [Dioxydin]
Effect on the membranolytic action of AMPs (E. coli ML-35p [2]; ¼ MIC AMP + ¼ MIC antiseptic, poviargolum: outer membrane only, data not shown): did not cause significant changes in the dynamics of the membranolytic action of AMPs
Effect on permeability of bacterial membranes for chromogenic markers, substance alone (E. coli ML-35p [2]; ¼ and ½ MIC, nitrocefin (outer) and ONPG (inner membrane), 10 mM Na-P buffer pH 7.4, 100 mM NaCl, 37 °C): did not significantly increase the permeability of bacterial membranes

CC(O)(P(=O)(O)O)P(=O)(O)O [Etidronic acid]
Interference with ONPG processing by cytoplasmic β-galactosidase (E. coli ML-35p [2]; [4]): fully blocked the processing of ONPG
Interference with nitrocefin degradation by bacterial β-lactamase (E. coli ML-35p [2]; [4]): prevents said enzyme from splitting nitrocefin
MIC (E. coli ML-35p [3]; Escherichia coli, ML35P, read-out: MIC): 50 mg/mL (≈ 243 mM)

CC(C)C[C@H](NC(=O)[C@H](CCCNC(=N)N)NC(=O)CNC(=O)CNC(=O)[C@@H](N)CCCNC(=N)N)C(=O)N[C@H]1CSSC[C@@H](C(=O)N[C@H](C(=O)NCC(=O)N[C@@H](CCCNC(=N)N)C(N)=O)C(C)C)NC(=O)[C@H](C(C)C)NC(=O)[C@@H]2CSSC[C@H](NC(=O)[C@H](Cc3ccc(O)cc3)NC1=O)C(=O)N[C@@H](CCCNC(=N)N)C(=O)N[C@@H](CCCNC(=N)N)C(=O)N[C@@H](CCCNC(=N)N)C(=O)N[C@@H](Cc1ccccc1)C(=O)N2 [PG-1, protegrin 1]
Effect of poviargolum on development of the AMP's suppression of bacterial metabolic activity (E. coli ML-35p [1]): significantly accelerated

Cocamidopropyl betaine
Interference with nitrocefin degradation by bacterial β-lactamase (E. coli ML-35p [2]; [4]): block the degradation of nitrocephin by β-lactamase
MIC (E. coli ML-35p [3]): >50,000 µg/mL
